Experimental data: ChEMBL document CHEMBL4354786, “Prodrug strategies for targeted therapy triggered by reactive oxygen species” (Medchemcomm, 2019)

Experiment: Drug metabolism in pH 7.5 HEPES buffer assessed as hydrolysis after 24 hrs

| SMILES | Drug metabolism [%] |
| --- | --- |
| O=C(NCc1ccc(-c2ccccc2)cc1)c1cccc(=O)n1OS(=O)(=O)c1ccccc1 | 100 |
| O=C(O)c1ccc(S(=O)(=O)On2c(C(=O)NCc3ccc(-c4ccccc4)cc3)cccc2=O)cc1 | 100 |
